Consider 3 molecules from paper PMC8044911, “Research on the Interaction Mechanism Between α Mino-Phosphonate Derivative Q-R and Harpin-Binding Protein 1 in Tobacco (Nicotiana tabacum) Plants” (Frontiers in Microbiology, 2021).

The target in data set [1] is T1, HrBP1 (harpin-binding protein 1) (Nicotiana tabacum, UniProt Q5QJB2).
T1 construct: full-length ORF (831 bp, 276 aa) in pET28a NdeI/XhoI, E. coli BL21(DE3), HisTrap purified, tag removal not described; about 30 kDa on SDS-PAGE, oligomer about 180 kDa by SEC
Nature of the data set: isothermal titration calorimetry. On the technique in general: Isothermal titration calorimetry measures the heat released or taken up as one component is titrated into another.

Data set [2] deals with T1, HrBP1 (harpin-binding protein 1). The data set is described as follows: isothermal titration calorimetry. Conditions: pH 7.5, 25 °C, 20 mM Tris-HCl, 100 mM NaCl.
Data set [3] deals with the molecule itself. Nature of the data set: SEC; Superdex 200 10/300 GL, 4°C, 20 mM Tris-HCl, 100 mM NaCl, pH 7.5; mass standards 17-440 kDa; run without and after adding the small molecule Q-R (larger oligomer with Q-R). A general note: In gel filtration, larger molecules generally elute earlier.

Usually Kd stands for the concentration at which binding is half-saturated. A high value points to weaker binding.

As to `Cc1cccc2sc(N[C@@H](c3cccs3)P(=O)(Oc3ccccc3)Oc3ccccc3)nc12` [Q-R, (R)-diphenyl-1-(4-methylbenzothiazole-2-amino)-1-(thiphene-2-yl)-methylphosphonate], binding in data set [1] was put at a Kd of 1.19 µM. This lies in the single-digit micromolar range.
Take `CCOP(=O)(OCC)C(Nc1nc2c(C)cccc2s1)c1ccccc1F` (stereo not drawn) [dufulin]: the isothermal titration calorimetry result in data set [2] was “weak binding occurred between the dufulin and HrBP1 protein”.

B1: harpin-binding protein 1 (HrBP1) from Nicotiana tabacum (natural protein, UniProt Q5QJB2 1-276, looked up)
chain: MASLLQYSTLPLSNNHCSSSLPSLTCHLSKRSNRNTQKLLEKKKYHIKKSLICQSGIDELAFIELPGTKEAKAELIGSLKLKLLSAVSGLNRGLAASEEDLKKADAAAKELESCAGAVDLSADLDKLQGRWKLIYSSAFSGRTLGGSRPGPPTGRLLPITLGQVFQRIDVLSKDFDNIVELELGAPWPLPPAELTATLAHKFELIGSSTIKITFEKTTVKTTGILSQLPPFEVPRIPDQLRPPSNTGSGEFEVTYIDSDTRVTRGDRGELRVFVIS
notes: full-length gene of 831 bp, 276 amino acids, cloned between NdeI and XhoI of pET28a; tryptic peptides matched UniProt Q5QJB2; Removal of the tag is not described; also called HrBP1 recombinant protein; source: E. coli BL21(DE3), pET28a-HrBP1, purified (HisTrap column, desalting column, ultrafiltration)
Take B1: in data set [3], the binding result is “binds”.
